Assays:
[1] = target: T1, recombinant NAMPT (Homo sapiens, UniProt P43490); test: Enzymatic NAMPT assay (CycLex NAMPT colorimetric coupled-enzyme reaction system); format: biochemical; conditions: for IC50: titration curves of Figure 3a, coupled-enzyme colorimetric assay, read-out: IC50 (NAMPT inhibitory activity)
T1 construct: purchased MEDICAL & BIOLOGICAL LABORATORIES CO., LTD; (CycLex NAMPT Colorimetric Assay Kit)
Procedure: For the inhibitory effects of 3a and 3b on NAMPT activity, recombinant NAMPT activity was measured using a coupled-enzyme reaction system (CycLex NAMPT Colorimetric Assay Kit: MEDICAL & BIOLOGICAL LABORATORIES CO., LTD., Nagoya, Japan) according to the manufacturer’s instructions, as described previously. Briefly, NAMPT enzyme and tested compounds were put on the 96-well transparent plate. […] After a brief incubation, the absorbance of the samples was detected at 450 nm on every 10 min until 60 min using a SYNERGY HTX (BioTek Instruments, Inc.; Winooski, VT, USA). The inhibition rates were calculated by the initial slope of the absorbance of the tested samples divided by that of the control wells. The IC50 values for the samples were calculated by 4-parameter logistic regression using Image J 1.48v (https://imagej.nih.gov/ij/).
Figure 3 Biochemical properties of 3a and 3b. […] NAMPT activity was measured using a coupled-enzyme reaction system (CycLex NAMPT colorimetric assay kit) in 96-well plate format using the one-step method. Data are the averages of three independent experiments, and the bars indicate the standard error (SE) values. (b) The anti-proliferative effects of 3a (circle) and 3b (triangle) on HCT116 cells were investigated as described previously. HCT116 cells were treated with the indicated concentrations of each inhibitor with (closed symbol) or without (open symbol) 100 μM NMN for 72 h. The cell activity (% of control) was measured by use of the WST-8 assay. Data are presented as the means of three independent experiments ± SE, and the bars indicate the SE values.

[2] = test system: HCT116 cells; test: Cell activity (anti-proliferation) assay, WST-8, 72 h; format: cell-based, human; conditions: for rescue of HCT116 cells from cell death by supplementation of NMN: 100 μM NMN in the cell culture medium, 72 h; for EC50: Homo sapiens, HCT-116, read-out: 50% effective concentration (EC50), anti-proliferation, HCT116, continuous exposure for 72 h, WST-8
Procedure: (§1) To confirm the marked differences of anti-NAMPT activities between 3a and 3b, the anti-proliferation effects of these inhibitors on the human colon cancer cell line HCT116 were examined after continuous exposure for 72 h. […] In addition, there was little cytotoxicity on non-cancer cell lines, such as TIG-120, WI38 and MRC-5 cells. Both 3a and 3b caused more than 90% reduction of NAD^+ levels in the cancer cells after 24 h-treatment and thereby induced cell death.
HCT116 cell was obtained from American Type Culture Collection (ATCC) (Manassas, US) and cultured in Dulbecco’s modified Eagle medium (DMEM) (FUJIFILM Wako Pure Chemical Corporation) supplemented with 10% of fetal bovine serum (Biosera Europe; Nuaillé, France), 100 Units/mL of penicillin G and 100 μg/mL of Streptomycin (FUJIFILM Wako Pure Chemical Corporation).
One thousand HCT116 cells were inoculated into the 96-well transparent cell culture plate and cultured for 24 h. The medium was changed to new medium that contained the tested compounds and was further cultivated for 72 h. Following the culture, 1/10 volume of the WST-8 reagent (FUJIFILM Wako Pure Chemical Corporation) was added and incubated for 1 h. After the incubation, the absorbance of the samples was detected at 450 nm using a SYNERGY HTX (BioTek Instruments, Inc.). Cell activity was expressed as percentage of control cells treated with vehicle alone.
Figure 3 Biochemical properties of 3a and 3b. (a) The inhibitory activities of 3a (open circle), 3b (open triangle) and 1 (open square) against NAMPT enzyme were examined, as described previously. NAMPT activity was measured using a coupled-enzyme reaction system (CycLex NAMPT colorimetric assay kit) in 96-well plate format using the one-step method. Data are the averages of three independent experiments, and the bars indicate the standard error (SE) values. (b) The anti-proliferative effects of 3a (circle) and 3b (triangle) on HCT116 cells were investigated as described previously. HCT116 cells were treated with the indicated concentrations of each inhibitor with (closed symbol) or without (open symbol) 100 μM NMN for 72 h. The cell activity (% of control) was measured by use of the WST-8 assay. Data are presented as the means of three independent experiments ± SE, and the bars indicate the SE values.

[3] = test system: NAD+ levels in the cancer cells; test: Reduction of NAD+ levels in the cancer cells after 24 h-treatment; format: cell-based, human
Procedure: as §1

T1 sequence (P43490 whole entry): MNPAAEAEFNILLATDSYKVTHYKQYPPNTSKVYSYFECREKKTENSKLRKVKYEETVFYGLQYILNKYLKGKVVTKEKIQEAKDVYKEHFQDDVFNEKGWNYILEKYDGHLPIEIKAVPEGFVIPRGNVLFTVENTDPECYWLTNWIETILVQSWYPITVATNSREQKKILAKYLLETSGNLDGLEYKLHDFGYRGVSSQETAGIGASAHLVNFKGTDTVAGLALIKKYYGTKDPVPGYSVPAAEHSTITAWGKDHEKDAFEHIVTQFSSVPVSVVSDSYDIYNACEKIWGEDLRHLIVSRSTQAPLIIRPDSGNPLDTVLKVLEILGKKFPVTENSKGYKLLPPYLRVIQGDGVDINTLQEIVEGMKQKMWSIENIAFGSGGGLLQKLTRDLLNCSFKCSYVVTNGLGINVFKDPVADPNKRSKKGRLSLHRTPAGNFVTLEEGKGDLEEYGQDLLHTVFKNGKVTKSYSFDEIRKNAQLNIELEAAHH

Row | Compound | fold weaker NAMPT inhibitory activity than 3a ([1]; ratio of IC50 values, versus 3a) | IC50 [1] | rescue of HCT116 cells from cell death by supplementation of NMN [2] | fold higher EC50 than 3a ([2]; HCT116, 72 h, ratio of EC50 values, versus 3a) | EC50 [2] | reduction of NAD+ levels [3] | fold stronger NAMPT inhibitory activity than 1 ([1]; ratio of IC50 values, versus 1)
1 | O=C(NCCCCN1CCN(C(=O)c2ccccc2)CC1)c1cc2cnccc2[nH]1 [Compound 3b, N-(4-(4-Benzoylpiperazin-1-yl)butyl)-1H-pyroro[3,2-c]pyridine-2-carboxamide] | about 50 fold | 5.06 µM | significantly rescue | approximately 200 fold | 0.0875 µM | more than 90% | 
2 | O=C(NCCCCC1CCN(C(=O)c2ccccc2)CC1)c1cc2cnccc2[nH]1 [Compound 3a, N-(4-(1-benzoylpiperidin-4-yl)butyl)-1H-pyrrolo[3,2-c]pyridine-2-carboxamide] |  | 0.11 µM | significantly rescue |  | 0.00048 µM | more than 90% | approximately 5 fold

From article PMC7464552, “Structural Basis of Beneficial Design for Effective Nicotinamide Phosphoribosyltransferase Inhibitors” (Molecules, 2020)
